Where no end group is shown, it is not given here.
What was measured:
[1] = target: recombinant wild type TTR and ATTR-D38A seeds (Homo sapiens, UniProt P02766); conditions: 0.5 mg/ml recombinant TTR, 30 ng/μl ATTR-D38A seeds, increasing compound concentrations
Experimental: (§1) Fibril extracts were used to seed the formation of new aggregates from recombinant TTR. In order to further purify the extracts, they were treated with 1% sodium dodecyl sulfate and the soluble fraction was discarded after centrifugation at 13,000 rpm for 5 minutes. This process was repeated two times. The sample was washed with distilled water three times by centrifugation, and then sonicated in cycles of 5 seconds on, 5 seconds off, for a total of 10 minutes, at minimum intensity (18%). The protein content was measured using the Pierce™ BCA Protein Assay Kit (ThermoFisher Scientific). Seeds were added to 0.5 mg/ml recombinant TTR in a final volume of 200 μl of 5 μM thioflavin T, 10 mM Sodium Acetate pH 4.3, 100 mM KCl, and 10 mM EDTA. Unless labeled otherwise, cardiac seeds were analyzed at 30 ng/μl concentration and seeds extracted from adipose tissue were analyzed at 5 ng/μl. Thioflavin fluorescence emission was measured at 482 nm with absorption at 440 nm in a Varioskan Flash (ThermoFisher Scientific) or FLUOstar Omega (BMG LabTech) plate readers. Plates were incubated at 37° C. for 20-72 h as labeled with cycles of 9 min shake (700 rpm double orbital) and 1 min rest throughout the incubation. Measurements were taken with automatic gain if read in Varioskan Flash, or with a manual gain of 1,000 if read in FLUOstar Omega, every 10 min, bottom read. We normalized all our assays by subtracting ThT signal at initial point of incubation. Figures show ThT signal in arbitrary units (a.u.). Fibril formation was confirmed by TEM.
(§2) Amyloid seeding assays were performed as described above. 180 μM peptide was added to 0.5 mg/ml recombinant wild type TTR and 30 ng/μl ATTR-D38A seeds. Amyloid seeding was measured after 24 hour of incubation at 37° C. by ThT fluorescence. Thioflavin T signal obtained in the absence of peptide was considered 100%.

[2] = target: T1, recombinant wild type TTR (Homo sapiens, UniProt P02766); assay: TTR aggregation assay in the absence of seeds (absorbance at 400 nm); format: biochemical; conditions: 1 mg/ml recombinant wild type TTR, increasing amounts of stabilizer, 4 days
T1 construct: made in house; host or cells: E. coli
Experimental: Next we tested the ability of compounds and mutations that stabilize native, tetrameric TTR to halt amyloid formation induced by disease-related amyloid seeds. […] For these aggregation assays, we incubated 1 mg/ml recombinant wild type TTR with increasing amounts of stabilizers.
TTR aggregation assays are described previously (32). […] Protein aggregation was followed by absorbance at 400 nm, anti-TTR immuno-dot blot of the insoluble fraction, and/or transmission electron microscopy.

[3] = system: recombinant wild type TTR and ATTR-D38A seeds; conditions: 180 μM peptide, 0.5 mg/ml recombinant wild type TTR, 30 ng/μl ATTR-D38A seeds, 37° C.; N-methylated peptide as noted in the cell
Experimental: as §1, §2

Molecule	fibril formation with ATTR-D38A ex-vivo seeds in presence of stabilizer [1]	TTR aggregation in the absence of seeds [2]	B. ThT signal (20h, no inhibitor was normalized to 100%, SD = 11.42) [3]
O=C(O)c1cc(-c2ccc(F)cc2F)ccc1O [diflunisal]	did not reduce or delay fibril formation	considerably diminished in a dose-dependent manner	–
O=C(O)c1ccc2nc(-c3cc(Cl)cc(Cl)c3)oc2c1 [tafamidis]	did not reduce or delay fibril formation	considerably diminished in a dose-dependent manner	–
RRRRPFHEHAEVVFTA [TabF1]	–	–	60.45 ± 3.90 (N-me-A12) %
RRRRPYSYSTTAVVTN (not fully specified (residue 12)) [TabH1]	–	–	32.48 ± 2.39 (N-me-E11) %

— patent US11028128B2, “Inhibition of the aggregation of transthyretin by specific binding of peptides to aggregation-driving segments” (THE REGENTS OF THE UNIVERSITY OF CALIFORNIA, priority 2016, dated 2021)
